Measured values published in patent US20140024527A1, “HERBICIDAL PYRAZINONES” (E I DU DE NEMOURS AND COMPANY, priority 2011, published 2014).

How the values were obtained:
Experiment in all cases: Test B postemergence
Format in all cases: in vivo
Settings in all cases: scale 0 to 100
[1] = tested on: green foxtail (Setaria viridis)
Excerpt: (§1) Seeds of plant species selected from blackgrass (Alopecurus myosuroides), downy bromegrass (Bromus tectorum), green foxtail (Setaria viridis), Italian ryegrass (Lolium multiflorum), wheat (Triticum aestivum), wild oat (Avena fatua), galium (Galium aparine), bermudagrass (Cynodon dactylon), Surinam grass (Brachiaria decumbens), cocklebur (Xanthium strumarium), corn (Zea mays), large crabgrass (Digitaria sanguinalis), woolly cupgrass (Eriochloa villosa), giant foxtail (Setaria faberii), goosegrass (Eleusine indica), johnsongrass (Sorghum halepense), kochia (Kochia scoparia), lambsquarters (Chenopodium album), morningglory (Ipomoea coccinea), yellow nutsedge (Cyperus esculentus), pigweed (Amaranthus retroflexus), ragweed (Ambrosia elatior), soybean (Glycine max), velvetleaf (Abutilon theophrasti), barley (Hordeum vulgare), canarygrass (Phalaris minor), chickweed (Stellaria media), deadnettle (Lamium amplexicaule) and windgrass (Apera spica-venti) were planted in pots containing Redi-Earth® planting medium (Scotts Company, Marysville, Ohio, USA) comprising spaghnum peat moss, vermiculite, wetting agent and starter nutrients and treated postemergence with test compounds formulated in a non-phytotoxic solvent mixture which included a surfactant. Plants ranged in height from 2 to 18 cm (1- to 4-leaf stage).
(§2) Treated plants and controls were maintained in a greenhouse for 13 to 15 days, after which time all species were compared to controls and visually evaluated. Plant response ratings, summarized in Table B, are based on a scale of 0 to 100 where 0 is no effect and 100 is complete control. A dash (-) response means no test result.

[2] = tested on: cocklebur (Xanthium strumarium)
Excerpt: as §1, §2

barley (Hordeum vulgare) = tested on: barley (Hordeum vulgare)
Excerpt: as §1, §2

[3] = tested on: Surinam grass (Brachiaria decumbens)
Excerpt: as §1, §2

soybean (Glycine max) = tested on: soybean (Glycine max)
Excerpt: as §1, §2

[4] = tested on: wheat (Triticum aestivum)
Excerpt: as §1, §2

[5] = tested on: lambsquarters (Chenopodium album)
Excerpt: as §1, §2

[6] = tested on: bermudagrass (Cynodon dactylon)
Excerpt: as §1, §2

[7] = tested on: velvetleaf (Abutilon theophrasti)
Excerpt: as §1, §2

[8] = tested on: goosegrass (Eleusine indica)
Excerpt: as §1, §2

corn (Zea mays) = tested on: corn (Zea mays)
Excerpt: as §1, §2

[9] = tested on: windgrass (Apera spica-venti)
Excerpt: as §1, §2

kochia (Kochia scoparia) = tested on: kochia (Kochia scoparia)
Excerpt: as §1, §2

[10] = tested on: canarygrass (Phalaris minor)
Excerpt: as §1, §2

[11] = tested on: ragweed (Ambrosia elatior)
Excerpt: as §1, §2

[12] = tested on: morningglory (Ipomoea coccinea)
Excerpt: as §1, §2

[13] = tested on: johnsongrass (Sorghum halepense)
Excerpt: as §1, §2

[14] = tested on: downy bromegrass (Bromus tectorum)
Excerpt: as §1, §2

[15] = tested on: large crabgrass (Digitaria sanguinalis)
Excerpt: as §1, §2

galium (Galium aparine) = tested on: galium (Galium aparine)
Excerpt: as §1, §2

[16] = tested on: pigweed (Amaranthus retroflexus)
Excerpt: as §1, §2

[17] = tested on: woolly cupgrass (Eriochloa villosa)
Excerpt: as §1, §2

COCCn1c(-c2cccc(F)c2)c(Cl)nc(C(=O)C2=C(O)CCCC2=O)c1=O [Compound 4, 5-chloro-6-(3-fluorophenyl)-3-[(2-hydroxy-6-oxo-1-cyclohexen-1-yl)carbonyl]-1-(2-methoxyethyl)-2(1H)pyrazinone]
95: Plant response rating, Lambsquarters ([5]; 31 g ai/ha) | Plant response rating, Morningglory ([12]; 62 g ai/ha) | Plant response rating, Morningglory ([12]; 125 g ai/ha) | Plant response rating, Morningglory ([12]; 250 g ai/ha)
100: Plant response rating, Lambsquarters ([5]; 250 g ai/ha)
60: Plant response rating, Surinam Grass ([3]; 62 g ai/ha) | Plant response rating, Soybean (soybean (Glycine max); 62 g ai/ha) | Plant response rating, Velvetleaf ([7]; 125 g ai/ha) | Plant response rating, Canarygrass ([10]; 250 g ai/ha) | Plant response rating, Johnsongrass ([13]; 31 g ai/ha) | Plant response rating, Johnsongrass ([13]; 62 g ai/ha)
85: Plant response rating, Cocklebur ([2]; 250 g ai/ha) | Plant response rating, Johnsongrass ([13]; 250 g ai/ha) | Plant response rating, Crabgrass, Large ([15]; 250 g ai/ha) | Plant response rating, Cupgrass, Woolly ([17]; 250 g ai/ha)
20: Plant response rating, Barley (barley (Hordeum vulgare); 62 g ai/ha) | Plant response rating, Barley (barley (Hordeum vulgare); 125 g ai/ha) | Plant response rating, Wheat ([4]; 62 g ai/ha) | Plant response rating, Bermudagrass ([6]; 62 g ai/ha) | Plant response rating, Corn (corn (Zea mays); 62 g ai/ha)
70: Plant response rating, Foxtail, Green ([1]; 250 g ai/ha) | Plant response rating, Surinam Grass ([3]; 250 g ai/ha) | Plant response rating, Crabgrass, Large ([15]; 31 g ai/ha) | Plant response rating, Cupgrass, Woolly ([17]; 62 g ai/ha)
25: Plant response rating, Cocklebur ([2]; 62 g ai/ha) | Plant response rating, Canarygrass ([10]; 31 g ai/ha)
5: Plant response rating, Cocklebur ([2]; 31 g ai/ha) | Plant response rating, Wheat ([4]; 31 g ai/ha) | Plant response rating, Bermudagrass ([6]; 31 g ai/ha) | Plant response rating, Goosegrass ([8]; 31 g ai/ha) | Plant response rating, Windgrass ([9]; 31 g ai/ha)
35: Plant response rating, Foxtail, Green ([1]; 31 g ai/ha) | Plant response rating, Foxtail, Green ([1]; 62 g ai/ha) | Plant response rating, Foxtail, Green ([1]; 125 g ai/ha) | Plant response rating, Wheat ([4]; 250 g ai/ha) | Plant response rating, Bermudagrass ([6]; 125 g ai/ha) | Plant response rating, Corn (corn (Zea mays); 125 g ai/ha)
15: Plant response rating, Bromegrass, Downy ([14]; 125 g ai/ha) | Plant response rating, Bromegrass, Downy ([14]; 250 g ai/ha)
55: Plant response rating, Surinam Grass ([3]; 31 g ai/ha) | Plant response rating, Soybean (soybean (Glycine max); 31 g ai/ha) | Plant response rating, Corn (corn (Zea mays); 250 g ai/ha) | Plant response rating, Kochia (kochia (Kochia scoparia); 125 g ai/ha)
0: Plant response rating, Barley (barley (Hordeum vulgare); 31 g ai/ha) | Plant response rating, Corn (corn (Zea mays); 31 g ai/ha) | Plant response rating, Bromegrass, Downy ([14]; 31 g ai/ha)
50: Plant response rating, Velvetleaf ([7]; 31 g ai/ha) | Plant response rating, Velvetleaf ([7]; 62 g ai/ha) | Plant response rating, Goosegrass ([8]; 125 g ai/ha) | Plant response rating, Canarygrass ([10]; 125 g ai/ha) | Plant response rating, Ragweed ([11]; 31 g ai/ha) | Plant response rating, Galium (galium (Galium aparine); 31 g ai/ha) | Plant response rating, Galium (galium (Galium aparine); 62 g ai/ha) | Plant response rating, Cupgrass, Woolly ([17]; 31 g ai/ha)
40: Plant response rating, Bermudagrass ([6]; 250 g ai/ha) | Plant response rating, Windgrass ([9]; 125 g ai/ha) | Plant response rating, Canarygrass ([10]; 62 g ai/ha)
80: Plant response rating, Crabgrass, Large ([15]; 125 g ai/ha) | Plant response rating, Pigweed ([16]; 62 g ai/ha)
90: Plant response rating, Kochia (kochia (Kochia scoparia); 250 g ai/ha) | Plant response rating, Ragweed ([11]; 250 g ai/ha) | Plant response rating, Morningglory ([12]; 31 g ai/ha) | Plant response rating, Pigweed ([16]; 125 g ai/ha)
45: Plant response rating, Goosegrass ([8]; 62 g ai/ha) | Plant response rating, Kochia (kochia (Kochia scoparia); 62 g ai/ha)
30: Plant response rating, Barley (barley (Hordeum vulgare); 250 g ai/ha) | Plant response rating, Wheat ([4]; 125 g ai/ha) | Plant response rating, Windgrass ([9]; 62 g ai/ha)
65: Plant response rating, Cocklebur ([2]; 125 g ai/ha) | Plant response rating, Surinam Grass ([3]; 125 g ai/ha) | Plant response rating, Goosegrass ([8]; 250 g ai/ha) | Plant response rating, Windgrass ([9]; 250 g ai/ha) | Plant response rating, Ragweed ([11]; 62 g ai/ha) | Plant response rating, Pigweed ([16]; 31 g ai/ha)
75: Plant response rating, Soybean (soybean (Glycine max); 125 g ai/ha) | Plant response rating, Soybean (soybean (Glycine max); 250 g ai/ha) | Plant response rating, Velvetleaf ([7]; 250 g ai/ha) | Plant response rating, Ragweed ([11]; 125 g ai/ha) | Plant response rating, Johnsongrass ([13]; 125 g ai/ha) | Plant response rating, Crabgrass, Large ([15]; 62 g ai/ha) | Plant response rating, Cupgrass, Woolly ([17]; 125 g ai/ha)
10: Plant response rating, Kochia (kochia (Kochia scoparia); 31 g ai/ha) | Plant response rating, Bromegrass, Downy ([14]; 62 g ai/ha)
98: Plant response rating, Lambsquarters ([5]; 62 g ai/ha) | Plant response rating, Lambsquarters ([5]; 125 g ai/ha) | Plant response rating, Pigweed ([16]; 250 g ai/ha)
